Results from patent US9695155B2, “Herbicidal substituted pyrimidinyloxy benzene compounds” (E. I. DU PONT DE NEMOURS AND COMPANY, priority 2013, dated 2017).

Experiments:
[1] = tested on: pigweed; assay: Test D preemergence; format: in vivo, Amaranthus retroflexus; settings: Amaranthus retroflexus, pre-emergence
How it was run: (§1)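 Seeds sown in silt loam soil got preemergence sprays; plants in peat/vermiculite potting medium were sprayed postemergence at 2–18 cm (1- to 4-leaf stage). Chemicals were formulated in a non-phytotoxic solvent mixture with surfactant. After 7 to 21 days in a controlled environment, injury was rated visually versus controls, 0 (no effect) to 100 (complete control).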

[2] = tested on: kochia; assay: Test D preemergence; format: in vivo, Kochia scoparia; settings: Bassia scoparia, pre-emergence
How it was run: as §1

[3] = tested on: deadnettle; assay: Test D postemergence; format: in vivo, Lamium amplexicaule; settings: Lamium amplexicaule, post-emergence
How it was run: as §1

[4] = tested on: dayflower; assay: Test E postemergence; format: in vivo, Commelina virginica; settings: Commelina virginica, post-emergence, read-out: Plant response rating, Dayflower, VA
Description: (§2) Seeds of plant species selected from corn (Zea mays), soybean (Glycine max), velvetleaf (Abutilon theophrasti), lambsquarters (Chenopodium album), wild poinsettia (Euphorbia heterophylla), palmer pigweed (Amaranthus palmeri), waterhemp (common waterhemp, Amaranthus rudis), surinam grass (Brachiaria decumbens), large (Lg) crabgrass (Digitaria sanguinalis), Brazilian crabgrass (Digitaria horizontalis), fall panicum (Panicum dichotomiflorum), giant foxtail (Setaria faberii), green foxtail (Setaria viridis), goosegrass (Eleusine indica), johnsongrass (Sorghum halepense), ragweed (common ragweed, Ambrosia elatior), barnyardgrass (Echinochloa crus-galli), sandbur (southern sandbur, Cenchrus echinatus), arrowleaf sida (Sida rhombifolia), Italian ryegrass (Lolium multiflorum), dayflower (Virginia (VA) dayflower, Commelina virginica), field bindweed (Convolvulus arvensis), morningglory (Ipomoea coccinea), nightshade (eastern black nightshade, Solanum ptycanthum), kochia (Kochia scoparia), yellow nutsedge (Cyperus esculentus), cocklebur (common cocklebur, Xanthium strumarium), smartweed (ladysthumb smartweed, and hairy beggarticks (Bidens pilosa), were planted into a silt loam soil and treated preemergence with test chemicals formulated in a non-phytotoxic solvent mixture which included a surfactant.
(§3) At the same time, plants from these crop and weed species and also horseweed (Canada horseweed, Conyza canadensis), waterhemp_RES1, (ALS & Triazine resistant common waterhemp, Amaranthus rudis), and waterhemp_RES2, (ALS & HPPD resistant common waterhemp, Amaranthus rudis) were planted in pots containing Redi-Earth® planting medium (Scotts Company, 14111 Scottslawn Road, Marysville, Ohio 43041) comprising spaghnum peat moss, vermiculite, wetting agent and starter nutrients were treated with postemergence applications of test chemicals formulated in the same manner. Plants ranged in height from 2 to 18 cm for postemergence treatments (1- to 4-leaf stage). Treated plants and controls were maintained in a greenhouse for 14 to 21 days, after which time all species were compared to controls and visually evaluated. Plant response ratings, summarized in Table E, are based on a scale of 0 to 100 where 0 is no effect and 100 is complete control. A dash (-) response means no test result.

[5] = tested on: fall panicum; assay: Test E postemergence; format: in vivo, Panicum dichotomiflorum; settings: Panicum dichotomiflorum, post-emergence, read-out: Plant response rating, Panicum, Fall
Description: as §2, §3

[6] = tested on: windgrass; assay: Test D postemergence; format: in vivo, Apera spica-venti; settings: Apera spica-venti, post-emergence
How it was run: as §1

[7] = tested on: chickweed; assay: Test D preemergence; format: in vivo, Stellaria media; settings: Stellaria media, pre-emergence
How it was run: as §1

[8] = tested on: galium; assay: Test D preemergence; format: in vivo, Galium aparine; settings: Galium, pre-emergence
How it was run: as §1

[9] = tested on: wild oat; assay: Test D preemergence; format: in vivo, Avena fatua; settings: Avena fatua, pre-emergence
How it was run: as §1

[10] = tested on: speedwell; assay: Test D postemergence; format: in vivo, Veronica persica; settings: Veronica persica, post-emergence
How it was run: as §1

[11] = tested on: field bindweed; assay: Test E postemergence; format: in vivo, Convolvulus arvensis; settings: Convolvulus arvensis, post-emergence, read-out: Plant response rating, Field Bindweed
How it was run: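 Response was scored visually on a 0-100 scale (100 = complete control) versus controls after 14 to 21 days in the greenhouse. Test chemicals, formulated with surfactant in a non-phytotoxic solvent mixture, had been applied preemergence to seeds in silt loam soil or postemergence to 1- to 4-leaf plants in potting medium.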

[12] = tested on: Italian ryegrass; assay: Test D preemergence; format: in vivo, Lolium multiflorum; settings: Lolium multiflorum, pre-emergence
How it was run: as §1

[13] = Postemergence, 31 g ai/ha, scale 0 to 100
[14] = Postemergence, 62 g ai/ha, scale 0 to 100
[15] = Postemergence, 125 g ai/ha, scale 0 to 100
[16] = postemergence, 8 g ai/ha, scale 0 to 100, 0 no effect, 100 complete control
[17] = postemergence, 16 g ai/ha, scale 0 to 100, 0 no effect, 100 complete control

Structure (SMILES): Clc1cnc(Oc2ccccc2-n2cc(Br)cn2)nc1 [Compound 7, 2-[2-(4-bromo-1H-pyrazol-1-yl)phenoxy]-5-chloropyrimidine]
- pest or weed control at 16 g/ha ([1]; 16 g ai/ha, scale 0 (no effect) to 100 (complete control), read-out: Plant response rating, Pigweed): 0%
- pest or weed control at 31 g/ha ([1]; 31 g ai/ha, scale 0 (no effect) to 100 (complete control), read-out: Plant response rating, Pigweed): 30%
- pest or weed control at 62 g/ha ([1]; 62 g ai/ha, scale 0-100, read-out: Plant response rating, Pigweed): 90%
- pest or weed control at 125 g/ha ([1]; 125 g ai/ha, scale 0-100, read-out: Plant response rating, Pigweed): 90%
- pest or weed control at 250 g/ha ([1]; 250 g ai/ha, scale 0-100, read-out: Plant response rating, Pigweed): 90%
- pest or weed control at 16 g/ha ([2]; 16 g ai/ha, scale 0 (no effect) to 100 (complete control), read-out: Plant response rating, Kochia): 0%
- pest or weed control at 31 g/ha ([2]; 31 g ai/ha, scale 0-100, read-out: Plant response rating, Kochia): 0%
- pest or weed control at 62 g/ha ([2]; 62 g ai/ha, scale 0-100, read-out: Plant response rating, Kochia): 0%
- pest or weed control at 125 g/ha ([2]; 125 g ai/ha, scale 0-100, read-out: Plant response rating, Kochia): 0%
- pest or weed control at 250 g/ha ([2]; 250 g ai/ha, scale 0-100, read-out: Plant response rating, Kochia): 70%
- pest or weed control at 16 g/ha ([3]; 16 g ai/ha, scale 0-100, read-out: Plant response rating, Deadnettle): 10%
- pest or weed control at 31 g/ha ([3]; 31 g ai/ha, scale 0 to 100 (0 no effect, 100 complete control), read-out: Plant response rating, Deadnettle): 10%
- pest or weed control at 62 g/ha ([3]; 62 g ai/ha, scale 0 to 100 (0 no effect, 100 complete control), read-out: Plant response rating, Deadnettle): 20%
- pest or weed control at 125 g/ha ([3]; 125 g ai/ha, scale 0 to 100 (0 no effect, 100 complete control), read-out: Plant response rating, Deadnettle): 30%
- pest or weed control at 250 g/ha ([3]; 250 g ai/ha, scale 0 to 100 (0 no effect, 100 complete control), read-out: Plant response rating, Deadnettle): 40%
- pest or weed control at 31 g/ha [4, 13]: 50%
- pest or weed control at 62 g/ha [4, 14]: 70%
- pest or weed control at 125 g/ha [4, 15]: 90%
- pest or weed control at 8 g/ha [4, 16]: 10%
- pest or weed control at 16 g/ha [4, 17]: 40%
- pest or weed control at 31 g/ha [5, 13]: 15%
- pest or weed control at 62 g/ha [5, 14]: 50%
- pest or weed control at 125 g/ha [5, 15]: 0%
- pest or weed control at 8 g/ha [5, 16]: 0%
- pest or weed control at 16 g/ha [5, 17]: 0%
- pest or weed control at 16 g/ha ([6]; 16 g ai/ha, scale 0-100, read-out: Plant response rating, Windgrass): 0%
- pest or weed control at 31 g/ha ([6]; 31 g ai/ha, scale 0 to 100 (0 no effect, 100 complete control), read-out: Plant response rating, Windgrass): 0%
- pest or weed control at 62 g/ha ([6]; 62 g ai/ha, scale 0 to 100 (0 no effect, 100 complete control), read-out: Plant response rating, Windgrass): 0%
- pest or weed control at 125 g/ha ([6]; 125 g ai/ha, scale 0 to 100 (0 no effect, 100 complete control), read-out: Plant response rating, Windgrass): 10%
- pest or weed control at 250 g/ha ([6]; 250 g ai/ha, scale 0 to 100 (0 no effect, 100 complete control), read-out: Plant response rating, Windgrass): 25%
- pest or weed control at 16 g/ha ([7]; 16 g ai/ha, scale 0 (no effect) to 100 (complete control), read-out: Plant response rating, Chickweed): 0%
- pest or weed control at 31 g/ha ([7]; 31 g ai/ha, scale 0-100, read-out: Plant response rating, Chickweed): 0%
- pest or weed control at 62 g/ha ([7]; 62 g ai/ha, scale 0-100, read-out: Plant response rating, Chickweed): 10%
- pest or weed control at 125 g/ha ([7]; 125 g ai/ha, scale 0-100, read-out: Plant response rating, Chickweed): 90%
- pest or weed control at 250 g/ha ([7]; 250 g ai/ha, scale 0-100, read-out: Plant response rating, Chickweed): 95%
- pest or weed control at 16 g/ha ([8]; 16 g ai/ha, scale 0 (no effect) to 100 (complete control), read-out: Plant response rating, Galium): 0%
- pest or weed control at 31 g/ha ([8]; 31 g ai/ha, scale 0-100, read-out: Plant response rating, Galium): 0%
- pest or weed control at 62 g/ha ([8]; 62 g ai/ha, scale 0-100, read-out: Plant response rating, Galium): 20%
- pest or weed control at 125 g/ha ([8]; 125 g ai/ha, scale 0-100, read-out: Plant response rating, Galium): 30%
- pest or weed control at 250 g/ha ([8]; 250 g ai/ha, scale 0-100, read-out: Plant response rating, Galium): 40%
- pest or weed control at 16 g/ha ([9]; 16 g ai/ha, scale 0 (no effect) to 100 (complete control), read-out: Plant response rating, Oat, Wild): 0%
- pest or weed control at 31 g/ha ([9]; 31 g ai/ha, scale 0-100, read-out: Plant response rating, Oat, Wild): 0%
- pest or weed control at 62 g/ha ([9]; 62 g ai/ha, scale 0-100, read-out: Plant response rating, Oat, Wild): 0%
- pest or weed control at 125 g/ha ([9]; 125 g ai/ha, scale 0-100, read-out: Plant response rating, Oat, Wild): 10%
- pest or weed control at 250 g/ha ([9]; 250 g ai/ha, scale 0-100, read-out: Plant response rating, Oat, Wild): 10%
- pest or weed control at 16 g/ha ([10]; 16 g ai/ha, scale 0-100, read-out: Plant response rating, Speedwell): 30%
- pest or weed control at 31 g/ha ([10]; 31 g ai/ha, scale 0 to 100 (0 no effect, 100 complete control), read-out: Plant response rating, Speedwell): 70%
- pest or weed control at 62 g/ha ([10]; 62 g ai/ha, scale 0 to 100 (0 no effect, 100 complete control), read-out: Plant response rating, Speedwell): 100%
- pest or weed control at 125 g/ha ([10]; 125 g ai/ha, scale 0 to 100 (0 no effect, 100 complete control), read-out: Plant response rating, Speedwell): 100%
- pest or weed control at 250 g/ha ([10]; 250 g ai/ha, scale 0 to 100 (0 no effect, 100 complete control), read-out: Plant response rating, Speedwell): 100%
- pest or weed control at 31 g/ha [11, 13]: 30%
- pest or weed control at 62 g/ha [11, 14]: 50%
- pest or weed control at 125 g/ha [11, 15]: 70%
- pest or weed control at 8 g/ha [11, 16]: 15%
- pest or weed control at 16 g/ha [11, 17]: 20%
- pest or weed control at 16 g/ha ([12]; 16 g ai/ha, scale 0 (no effect) to 100 (complete control), read-out: Plant response rating, Ryegrass, Italian): 0%
- pest or weed control at 31 g/ha ([12]; 31 g ai/ha, scale 0 (no effect) to 100 (complete control), read-out: Plant response rating, Ryegrass, Italian): 0%
- pest or weed control at 62 g/ha ([12]; 62 g ai/ha, scale 0-100, read-out: Plant response rating, Ryegrass, Italian): 0%
- pest or weed control at 125 g/ha ([12]; 125 g ai/ha, scale 0-100, read-out: Plant response rating, Ryegrass, Italian): 0%
- pest or weed control at 250 g/ha ([12]; 250 g ai/ha, scale 0-100, read-out: Plant response rating, Ryegrass, Italian): 5%
